From US6696081B2, “Carbohydrate based lipid compositions and supramolecular structures comprising same” (Duke University, priority 2000, dated 2004)
“And” between values parts separate entries of the source, which are not always exact repeats. Equal entries are not always repeated. Where two headings read alike, the source gives them in different places. Each block holds one compound with its values, some of them ahead of it.

What was measured:
[1] = MDSC thermal analysis of DLRPA as a function of pH; format: physicochemical
Excerpt: The same modulated differential scanning calorimetry method used on DLRPC was employed to obtain thermotropic data on DLRPA. Instead of using water to hydrate the samples however, the following 5 buffers were utilized: a) 0.1 M KCl/HCl at pH 1.5, b) 0.1 M KCl/HCl at pH 4.14, c) 0.1 M Tris-HCl at pH 7.4, d) 0.01 M sodium borate at pH 8.44, and e) 0.01 M sodium borate at pH 9.5.
The effect of pH on the phase-transition temperature of DLRPA supramolecular structures was probed using modulated differential scanning calorimetry. Experiments were performed in the following 5 solutions: a) 0.1 M KCl/HCl at pH 1.5, b) 0.1 M KCl/HCl at pH 4.14, c) 0.1 M Tris-HCl at pH 7.4, d) 0.01 M sodium borate at pH 8.44, and e) 0.01 M sodium borate at pH 9.5.

[2] = Modulated differential scanning calorimetry (MDSC) of hydrated lipid bilayers; format: physicochemical; conditions: for enthalpy of transition / phase-transition temperature (Tm) of the bilayer: lipid hydrated in water, MDSC; for increase of Tm over the glycerol analog: DLRPC vs DLPC, DMRPC vs DMPC
Protocol: The phase-transition temperatures (Tm) of the bilayers formed by DLRPC, DMRPC and DARPC were determined by modulated differential scanning calorimetry (MDSC). […] For DARPC, the similarity in Tm was not entirely unexpected since tail—tail interactions contribute more to the Tm as the tail length increases. […] At the phase-transition temperature, the bilayer transformed from the gel-liquid crystalline phase in glycerol based phospholipids such as DLPC and DMPC. This endothermic process was observed as two discreet events. A small pre-transition peak, corresponding to the conversion from a lamellar gel (Lβ) phase to rippled gel (Pβ) phase, occurred below a much larger sharp main transition peak corresponding to conversion of the Pβ phase to the liquid crystalline Lα phase. The temperature at which the pre-transition existed as well as the enthalpy of the transition both changed as a function of tail length in a linear pattern. This presence of two well-defined phase transitions was not observed for the carbohydrate-based lipids.
Thermal Analysis of DLRPC 1-2 mgs of lipid were hermetically sealed with […] water in an aluminum pan. The modulation was set to ±1.00° C. every 40 seconds and the pan was equilibrated at −15° C. The temperature was increased at 0.5° C./min to 70° C. where the temperature was held for 2 minutes. The temperature was then reduced to −10° C. and held at this temperature for 2 minutes. This heating-cooling cycle was repeated two more times before the sample was held isothermal at −10° C. for 20 minutes. Integrating under the heat flow peak curve of the main peak provides the enthalpy of the transition. TA Instruments Universal Analysis computer program (available from TA Instruments of New Castle, Del., United States of America) was used to analyze the data. DLRPC has a Tm of 15.75° C. and an enthalpy of 3.3 kcal/mol.
The same modulated differential scanning calorimetry method used on DLRPC was employed to obtain thermotropic data on DMRPC.
The same modulated differential scanning calorimetry method used on DLRPC was employed to obtain thermotropic data on DARPC.

[3] = literature value, Marsh, CRC Handbook of Lipid Bilayers; cited from earlier work
PLA2 (naja naja venom) = assay: pH-stat phospholipase assay; format: biochemical; conditions: for initial average rate of hydrolysis by PLA2: lipid as substrate, Triton X-100 40 mM, CaCl2 10 mM, 40° C., pH 8.0, PLA2 0.1 units/mL
Protocol: The pH-stat phospholipase assays were performed on a Metrohm 718 STAT Titrino pH-stat following a procedure described by Yuan et al. (Yuan, W.; Berman, R. J.; Gelb, M. H. J. Am. Chem. Soc. 1987, 109, 8071-8081; Deems, R. A.; Dennis, E. A. Methods Enzym 1981, 71, 703-710.) Before the assays were performed, the pH-stat was calibrated at pH 7 and pH 4. The NaOH (0.01 N) titrant was standardized by titration to pH 8.65 with a weighed amount of potassium hydrogen-phthalate in 40 mL of Dl water. The lipid was transferred to a 5 mL round bottom flask in methylene chloride/methanol (98/2) and the solvent was removed by rotoevaporation. High vacuum then removed trace amounts of remaining solvent. The lipid film was rehydrated with 2 mL of an aqueous solution containing TRITON X-100™ detergent (Sigma Chemical Company, St. Louis, Mo.) (40 mM) and CaCl2 (10 mM) and then sonicated briefly to solubilize the lipids.
Next, the solution was immersed in a temperature-controlled bath at 40° C. and stirred with a magnetic stir bar. A stream of argon was passed over the reaction mixture to prevent CO2 absorption. A microelectrode (Metrohm 6.0224.100 pH 1-11/0-60° C. Idrolyte) was inserted through the top of the reaction vessel along with the dosing tube from the pH-stat. The reaction mixture was adjusted to a pH of 8.2 by addition of NaOH. Next, 0.2 units of PLA2 (naja naja venom, Sigma Chemical Company, St. Louis, Mo.) (0.1 units/mL) was added to the reaction and the reaction started. The pH was allowed to drop to 8.0 and held at this value by addition of NaOH. At pH 8, the fatty acids were almost completely ionized; therefore, the amount of base added as a function of time indicates cleavage of the ester bond.
In this Example, enzymatic activity was recorded using a pH-stat, which maintains a specific pH by adding base during the enzymatic reaction. During these assays, DMPC was hydrolyzed with an initial average rate of 6.19 E-08 (moles NaOH/minute) (std dev 6.72E-10).
Next, whether DMRPC inhibits PLA2 activity was investigated. Using DMPC (5 mM) as a substrate, DMRPC was added to the reaction mixture at varying concentrations. […] With a change in structure, different carbohydrate-based phospholipids could inhibit PLA2.

[4] = Carboxyfluorescein leakage assay of carbohydrosomes; format: physicochemical
Excerpt: The following procedure is adapted from Weinstein et al. (Weinstein, et al., Self-Quenching of Carboxyfluorescein Fluorescence: Uses in Studying Liposome Stability and Liposome-Cell Interaction; Weinstein, J. N.; et al., Ed.; CRC Press, Inc.: Boca Raton, Fla., United States of Amenica 1984; Vol. 3, pp 183-204.) and was successfully used in DMPC control experiments. Immediately before use, the carbohydrate-based lipid DMRPC, was passed through a C-18 SEP PAK™ column using a solvent system of 10% MeOH/CH3CN. Both the cholesterol and DMRPC were dissolved in chloroform and mixed. The mixtures were dried by rotoevaporation in a 100 mL round bottom flask before being thoroughly dried by high vacuum. […] The size of the liposomes was determined using dynamic light scattering. […] The filtered liposomes were diluted into osmotically equivalent 20 mM PBS buffer at pH 7.4 and the fluorescence intensity was measured over time. […]
As discussed herein above, one of the most wide-spread uses of liposomes is as drug delivery vehicles in warm-blooded vertebrates, including humans. […] In this Example, release of the self-quenching dye 5(6)-carboxyfluorescein (encapsulated in 5 mg/mL) was monitored over time by preparing carboxyfluorescein-containing carbohydrosomes using the high-pressure extrusion method. […]

[5] = Cholesterol interactions: MDSC of lipid/cholesterol mixtures; format: physicochemical
Protocol: The enthalpy was zero at 50 mol % cholesterol for DMRPC. For the glycerol-based phospholipid, cholesterol packed in the bilayer membrane with its hydroxyl group at the same level as the acyl groups. In this structural arrangement, cholesterol primarily interacted with the tails and not the head group or backbone.
For DMRPC, a slight decrease in phase-transition temperature was observed. The phase-transition temperature decreased from ˜30° C. at 0 mol % cholesterol to ˜27° C. at 35 mol % cholesterol. […] The carbohydrate backbone of DMRPC likely altered the effective hydrophobic length of the bilayer area (this DMRPC is similar to longer tail systems). There was a slight destabilization of the bilayer membrane with the incorporation of cholesterol as indicated by the decrease in phase-transition temperature. […] X-ray data on 20 mol % cholesterol/DMRPC confirmed the Lc state.

[6] = 40 mol % cholesterol; McMullen et al.; cited from earlier work
[7] = glycerol analog, Van Dijck et al.; cited from earlier work

Compound: bis-(2,3-lauroyl)-1-methoxy-5-ribo-phosphatidic acid [DLRPA]
- pH at which the first proton of the phosphate is lost ([1]; from Tm versus pH profile): 3-4
- pH at which the second proton of the phosphate is lost ([1]; from Tm versus pH profile): ~8.5
- Tm ([1]; pH 1.5, 0.1 M KCl/HCl): ~45 °C
- Tm ([1]; pH 4.14, 0.1 M KCl/HCl): 34 °C
- Tm ([1]; pH 7.4, 0.1 M Tris-HCl): 31 °C
- Tm ([1]; pH 8.4, 0.01 M sodium borate): 29 °C
- Tm ([1]; pH 9.5, 0.01 M sodium borate): ~18 °C

Compound: methyl-2,3-di-O-arachadonyl-b-D-ribo-5-phosphocholine [DARPC]
- enthalpy of transition [2]: 5.1 ± 1.5 kcal/mol and 5.1 kcal/mol
- phase-transition temperature (Tm) of the bilayer [2]: 63.5±0.6 °C and 63.5 °C

- enthalpy of transition [2]: 12.6 ± 0.7 kcal/mol
- phase-transition temperature (Tm) of the bilayer [2]: 66 °C
Compound: CCCCCCCCCCCCCCCCCCCC(=O)OC[C@H](COP(=O)([O-])OCC[N+](C)(C)C)OC(=O)CCCCCCCCCCCCCCCCCCC [DAPC, reference compound]
- enthalpy of transition (literature) [3]: 11.93 kcal/mol

Compound: methyl-2,3-di-O-myristoyl-b-D-ribo-5-phosphocholine [DMRPC]
- hydrolysis rate of DMPC with DMRPC added (PLA2 (naja naja venom); DMPC (5 mM) as substrate, DMRPC added to the reaction mixture): 6.32E-08 (std. dev. 1.36E-08) moles NaOH/minute
- inhibition of PLA2 activity (PLA2 (naja naja venom); DMPC (5 mM) as substrate, as much as 4 mM DMRPC added): did not yield a significant hydrolysis rate decrease
- initial average rate of hydrolysis by PLA2 (PLA2 (naja naja venom)): not hydrolyzed
- vesicle survival of SEPHADEX G-50 column separation ([4]; vesicles of 100% DMRPC (0% cholesterol)): too fragile to survive
- phase-transition temperature ([5]; 0 mol % cholesterol): ~30 °C
- phase-transition temperature ([5]; 35 mol % cholesterol): ~27 °C
- enthalpy of transition ([5]; 50 mol % cholesterol): zero
- increase of Tm over the glycerol analog [2]: approximately 6 °C
- enthalpy of transition [2]: 6.1 ± 1.0 kcal/mol and 6.1 kcal/mol
- phase-transition temperature (Tm) of the bilayer [2]: 29.6±0.3 °C and 29 °C and 29.6 °C

- increase of Tm over the glycerol analog [2]: 16 °C
- enthalpy of transition [2]: 3.3 ± 0.3 kcal/mol and 3.3 kcal/mol
- phase-transition temperature (Tm) of the bilayer [2]: 15.75±0.05 °C and 15.75 °C
Compound: CCCCCCCCCCCC(=O)O[C@H]1[C@H](OC)O[C@H](COP(=O)([O-])OCC[N+](C)(C)C)[C@H]1OC(=O)CCCCCCCCCCC [DLRPC, Methyl-2,3-di-O-lauroyl-b-D-ribo-5-phosphocholine]

Compound: CCCCCCCCCCCCCC(=O)OC[C@H](COP(=O)([O-])OCC[N+](C)(C)C)OC(=O)CCCCCCCCCCCCC [DMPC, reference compound]
- increase in phase-transition temperature [6]: ≤ 17 °C
- initial average rate of hydrolysis by PLA2 (PLA2 (naja naja venom)): 6.19 E-08 moles NaOH/minute and 6.19 E-08 (std. dev. 6.72E-10) moles NaOH/minute
- enthalpy of transition (literature) [3]: 5.9 ± 0.6 kcal/mol
- release of carboxyfluorescein in the first 20 minutes ([4]; vesicles in 20 mM PBS pH 7.4): release dye over the first 20 minutes
- enthalpy of transition [2]: 5.6 ± 1.1 kcal/mol
- phase-transition temperature (Tm) of the bilayer [2]: 23.5 °C

Compound: CCCCCCCCCCCC(=O)OC[C@H](COP(=O)([O-])OCC[N+](C)(C)C)OC(=O)CCCCCCCCCCC [DLPC, 1,2-dilauroyl-sn-glycero-3-phosphocholine, reference compound]
- enthalpy of transition [2]: 1.5 kcal/mol
- phase-transition temperature (Tm) of the bilayer [2]: −1.1±0.8 °C

Compound: CCCCCCCCCCCC(=O)OC[C@H](COP(=O)(O)O)OC(=O)CCCCCCCCCCC [DLPA, dilauroyl phosphatidic acid]
- pH at which the first proton of the phosphate is lost [7]: 3-4
- pH at which the second proton of the phosphate is lost [7]: ~7
